The source made the active and inactive calls. Unless noted, the calls are words filed in the database; no cut-off is given here.

One assay deals with Tumor necrosis factor (Homo sapiens, UniProt P01375). Kind of assay: TNFa-triggered NF-kB activation inhibitors, SAR follow-up, cell-based, revised (AID 2337). The assay is classed as functional.
A further assay concerns HEK293. The assay can be described thus: cells. The note with it: Homo sapiens.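 Further: cells exposed to compound for 14 hours overnight before viability readout.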
The target of assay [1] is T1, COUP transcription factor 2 (Homo sapiens, UniProt P24468).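 Further: HEK293 cells transiently cotransfected with COUP-TFII expression vector and reporter; luciferase reporter luminescence driven by COUP-TFII from the pX2-168 reporter plasmid.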
T1 sequence (P24468 whole entry): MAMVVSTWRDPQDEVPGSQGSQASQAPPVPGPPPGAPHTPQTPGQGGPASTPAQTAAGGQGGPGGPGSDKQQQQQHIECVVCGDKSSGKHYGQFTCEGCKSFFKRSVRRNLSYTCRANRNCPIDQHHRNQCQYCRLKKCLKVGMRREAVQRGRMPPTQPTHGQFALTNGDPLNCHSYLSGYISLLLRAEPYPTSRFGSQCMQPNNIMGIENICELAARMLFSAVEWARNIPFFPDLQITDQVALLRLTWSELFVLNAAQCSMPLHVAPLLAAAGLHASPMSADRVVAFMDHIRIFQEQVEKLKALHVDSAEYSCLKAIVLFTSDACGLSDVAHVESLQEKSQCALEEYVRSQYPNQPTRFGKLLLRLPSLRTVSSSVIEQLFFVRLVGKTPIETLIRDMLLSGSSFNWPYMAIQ
The assay can be described thus: Luminescence-based cell-based high throughput dose response assay to identify inhibitors of COUP-TFII (NR2F2). The assay is classed as functional.

The target in assay [2] is T2, Heat shock factor protein 1 (Mus musculus, UniProt P38532).
T2 sequence (P38532 whole entry): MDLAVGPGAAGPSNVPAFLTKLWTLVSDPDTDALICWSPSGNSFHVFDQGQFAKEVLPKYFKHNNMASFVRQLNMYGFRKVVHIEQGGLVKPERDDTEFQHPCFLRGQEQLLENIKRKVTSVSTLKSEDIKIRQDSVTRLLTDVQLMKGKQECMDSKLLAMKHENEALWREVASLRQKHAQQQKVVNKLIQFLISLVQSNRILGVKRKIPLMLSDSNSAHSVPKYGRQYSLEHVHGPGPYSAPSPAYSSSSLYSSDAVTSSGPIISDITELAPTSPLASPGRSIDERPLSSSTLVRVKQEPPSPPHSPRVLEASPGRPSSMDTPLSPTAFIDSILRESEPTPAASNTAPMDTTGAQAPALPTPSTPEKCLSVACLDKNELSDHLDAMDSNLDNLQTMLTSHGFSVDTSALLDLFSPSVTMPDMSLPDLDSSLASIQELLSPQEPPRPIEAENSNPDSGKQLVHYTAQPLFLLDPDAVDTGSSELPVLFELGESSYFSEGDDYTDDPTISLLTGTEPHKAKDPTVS
The assay can be described thus: inhibition of MG132-induced HSE-luciferase signal, confirmation, cell-based, NIH3T3, luminescence, dose retest (AID 2382).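 Further: NIH3T3 fibroblasts with HSF1-driven luciferase reporter stressed by proteasome inhibitor MG132; luminescence from HSF1-driven luciferase expression after 8 hours of MG132 stress.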 The assay is classed as functional.

In assay [3] the target is Induced myeloid leukemia cell differentiation protein Mcl-1 (Homo sapiens, UniProt Q07820). The assay is classed as functional.
The nature of assay [4]: Luminescence-based counterscreen assay for KLF5 inhibitors: dose response cell-based high throughput screening assay to identify cytotoxic compounds using the IEC-6 intestinal epithelial cell line. [Related pubchem assays: 1700 (Primary screen.), 1834 (Confirmation screen.), 1858 (Summary AID.), 1905 (Counterscreen.)]. The assay is classed as functional.
Assay [5] has as its target Nucleotide-binding oligomerization domain-containing protein 1 (Homo sapiens, UniProt Q9Y239). Kind of assay: NOD1 signaling inhibitors, SAR follow-up, revised (AID 2333). The assay is classed as functional.
Assay [6] addresses T3, Kappa-type opioid receptor (Homo sapiens, UniProt P41145). The assay can be described thus: SAR analysis of small molecule agonists of the kappa opioid receptor via a luminescent beta-arrestin assay - Set 2. [Related pubchem assays (depositor defined):AID1777, AID1785, AID1786, AID1966, AID2133, AID2136, AID2284, AID449737]. The assay is classed as functional.
Assay [7] addresses T4, Delta-type opioid receptor (Homo sapiens, UniProt P41143). Kind of assay: SAR Analysis of Antagonists of the DOR Receptor using an Image-Based Assay - Set 2. [Related pubchem assays (depositor defined):AID1777, AID1785, AID1786, AID1966, AID2133, AID2136, AID2284, AID2285, AID2357]. The assay is classed as functional.
The target in assay [8] is T5, Mu-type opioid receptor (Homo sapiens, UniProt P35372). The assay can be described thus: SAR Analysis of Antagonists of the MOR Receptor using an Image-Based Assay - Set 2. [Related pubchem assays (depositor defined):AID1777, AID1785, AID1786, AID1966, AID2133, AID2136, AID2284, AID2285, AID2420]. The assay is classed as functional.
For assay [9], the target named is T5, Mu-type opioid receptor. The assay can be described thus: SAR Analysis of Agonists of the MOR Receptor using an Image-Based Assay - Set 2. [Related pubchem assays (depositor defined):AID1777, AID1785, AID1786, AID1966, AID2133, AID2136, AID2284, AID2285, AID2352]. The assay is classed as functional.
Assay [10] has as its target T3, Kappa-type opioid receptor. Kind of assay: SAR analysis of Agonists of the Kappa Opioid Receptor (KOR) using an Image-Based Assay - Set 2. [Related pubchem assays (depositor defined):AID1777, AID1786, AID1966, AID2133, AID2136, AID2284, AID2285, AID2359]. The assay is classed as functional.
Assay [11] has as its target T3, Kappa-type opioid receptor. The assay can be described thus: SAR analysis of Antagonists of the Kappa Opioid Receptor (KOR) using an Image-Based Assay - Set 2. [Related pubchem assays (depositor defined):AID1777, AID1785, AID1786, AID1966, AID2133, AID2136, AID2284, AID2285, AID2348]. The assay is classed as functional.
The target of assay [12] is T4, Delta-type opioid receptor. Kind of assay: SAR Analysis of Agonists of the DOR Receptor using an Image-Based Assay - Set 2. [Related pubchem assays (depositor defined):AID1777, AID1785, AID1786, AID1966, AID2133, AID2136, AID2284, AID2285, AID2370]. The assay is classed as functional.

T3 sequence (P41145 whole entry): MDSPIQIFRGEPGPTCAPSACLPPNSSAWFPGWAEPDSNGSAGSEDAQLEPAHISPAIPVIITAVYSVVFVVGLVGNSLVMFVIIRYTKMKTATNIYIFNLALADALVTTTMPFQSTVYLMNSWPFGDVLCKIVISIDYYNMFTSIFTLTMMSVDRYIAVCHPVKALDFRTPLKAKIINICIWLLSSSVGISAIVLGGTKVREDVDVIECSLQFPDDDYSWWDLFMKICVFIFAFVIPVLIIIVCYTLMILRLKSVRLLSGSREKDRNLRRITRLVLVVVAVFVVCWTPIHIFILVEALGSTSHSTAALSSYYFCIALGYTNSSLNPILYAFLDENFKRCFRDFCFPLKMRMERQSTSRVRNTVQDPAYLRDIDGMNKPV
T5 sequence (P35372 whole entry): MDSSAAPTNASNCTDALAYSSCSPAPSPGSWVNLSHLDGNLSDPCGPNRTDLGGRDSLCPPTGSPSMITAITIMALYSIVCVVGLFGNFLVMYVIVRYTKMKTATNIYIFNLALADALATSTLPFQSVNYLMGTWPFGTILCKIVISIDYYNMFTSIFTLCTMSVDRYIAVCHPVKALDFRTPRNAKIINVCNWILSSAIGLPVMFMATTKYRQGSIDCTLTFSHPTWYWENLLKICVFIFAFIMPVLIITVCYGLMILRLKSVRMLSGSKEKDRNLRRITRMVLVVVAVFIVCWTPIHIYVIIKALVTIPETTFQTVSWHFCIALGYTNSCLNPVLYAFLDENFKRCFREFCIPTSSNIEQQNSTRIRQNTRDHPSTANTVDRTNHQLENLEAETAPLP
T4 sequence (P41143 whole entry): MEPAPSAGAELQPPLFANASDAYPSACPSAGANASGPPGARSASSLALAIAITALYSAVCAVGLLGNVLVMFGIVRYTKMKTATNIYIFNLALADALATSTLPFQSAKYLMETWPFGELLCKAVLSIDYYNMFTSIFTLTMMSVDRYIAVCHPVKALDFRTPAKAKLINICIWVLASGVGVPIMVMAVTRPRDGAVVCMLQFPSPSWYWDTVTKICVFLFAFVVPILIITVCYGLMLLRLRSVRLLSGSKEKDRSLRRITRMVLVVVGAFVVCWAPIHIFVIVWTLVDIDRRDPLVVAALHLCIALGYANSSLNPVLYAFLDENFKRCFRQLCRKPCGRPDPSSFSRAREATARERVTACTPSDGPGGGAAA
Nucleotide-binding oligomerization domain-containing protein 1, sequence (Q9Y239 whole entry, the tested form may be a part): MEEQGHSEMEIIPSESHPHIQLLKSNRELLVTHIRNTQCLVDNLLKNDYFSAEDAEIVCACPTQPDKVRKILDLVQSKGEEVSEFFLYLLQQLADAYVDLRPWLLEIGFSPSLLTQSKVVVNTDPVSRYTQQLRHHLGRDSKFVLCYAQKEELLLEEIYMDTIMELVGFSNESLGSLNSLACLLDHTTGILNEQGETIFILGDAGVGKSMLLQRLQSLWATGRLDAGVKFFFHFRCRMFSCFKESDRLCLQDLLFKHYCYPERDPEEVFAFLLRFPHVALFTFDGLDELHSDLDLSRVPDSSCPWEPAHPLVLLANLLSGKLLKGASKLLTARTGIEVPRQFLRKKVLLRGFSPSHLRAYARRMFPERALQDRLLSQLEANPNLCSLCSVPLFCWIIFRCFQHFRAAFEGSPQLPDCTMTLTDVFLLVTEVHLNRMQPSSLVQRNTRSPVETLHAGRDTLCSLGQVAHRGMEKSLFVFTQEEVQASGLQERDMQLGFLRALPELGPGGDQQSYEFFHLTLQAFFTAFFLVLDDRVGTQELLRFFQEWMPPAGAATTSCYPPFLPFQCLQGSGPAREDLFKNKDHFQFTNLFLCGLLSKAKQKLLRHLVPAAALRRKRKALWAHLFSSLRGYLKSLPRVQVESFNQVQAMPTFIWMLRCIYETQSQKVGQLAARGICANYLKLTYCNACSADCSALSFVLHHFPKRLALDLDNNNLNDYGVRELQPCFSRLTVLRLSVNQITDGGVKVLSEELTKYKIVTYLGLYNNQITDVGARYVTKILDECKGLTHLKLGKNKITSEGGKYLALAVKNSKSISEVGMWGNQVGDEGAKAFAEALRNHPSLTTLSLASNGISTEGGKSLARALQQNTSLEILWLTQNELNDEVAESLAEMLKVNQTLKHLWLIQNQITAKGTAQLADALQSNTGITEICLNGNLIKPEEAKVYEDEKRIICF
Induced myeloid leukemia cell differentiation protein Mcl-1, sequence (Q07820 whole entry): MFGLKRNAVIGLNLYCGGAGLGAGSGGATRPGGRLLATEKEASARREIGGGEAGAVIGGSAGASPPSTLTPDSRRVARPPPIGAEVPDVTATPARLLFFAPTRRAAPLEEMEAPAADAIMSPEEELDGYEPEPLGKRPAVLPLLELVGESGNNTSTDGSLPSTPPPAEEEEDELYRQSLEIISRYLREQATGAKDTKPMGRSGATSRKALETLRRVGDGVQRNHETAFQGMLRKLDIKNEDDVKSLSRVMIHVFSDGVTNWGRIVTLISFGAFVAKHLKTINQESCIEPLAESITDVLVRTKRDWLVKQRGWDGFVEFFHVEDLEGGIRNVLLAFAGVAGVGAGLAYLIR
Tumor necrosis factor, sequence (P01375 whole entry): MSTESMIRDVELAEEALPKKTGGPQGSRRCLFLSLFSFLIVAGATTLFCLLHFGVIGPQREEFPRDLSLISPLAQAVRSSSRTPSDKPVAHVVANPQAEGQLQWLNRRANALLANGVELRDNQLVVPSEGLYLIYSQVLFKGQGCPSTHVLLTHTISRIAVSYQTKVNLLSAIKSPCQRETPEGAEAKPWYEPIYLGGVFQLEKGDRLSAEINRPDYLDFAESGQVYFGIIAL

Regarding `COC(=O)c1ccc2nc(Nc3nc4ccc(F)cc4s3)sc2c1`, the IC50 at Tumor necrosis factor is 462 nM (active); in the assay on HEK293, > 20 µM (inactive); in [1] it was 34 µM (inactive); in assay [3], 1.11 µM (active); in assay [4], > 39.8 µM (not active); in assay [5], 1.91 µM (active). Also, in assay [2], the EC50 is < 160 nM (active).
For the compound `CCc1ccc(S(=O)(=O)NCc2ccc(C(=O)NCCN(Cc3ccccc3)C(C)C)cc2)cc1`, the EC50 in assay [6] is > 20 µM (inactive); at Mu-type opioid receptor [9], > 32 µM (inactive); in assay [10], > 32 µM (inactive); in assay [12], > 32 µM (inactive). Further, the IC50 in assay [7] was > 32 µM (inactive); on Mu-type opioid receptor [8] it was > 32 µM (inactive); in [11], 2.55 µM (active).
